pKi: −log10 of the molar value.
Assays:
D(1B) dopamine receptor = D(1B) dopamine receptor (Homo sapiens, UniProt P21918); assay: Displacement of [3H]SCH23390 from human dopamine D5 receptor expressed in HEK cells; type: cell-based, HEK293
D(3) dopamine receptor = D(3) dopamine receptor (Homo sapiens, UniProt P35462); assay: Displacement of [3H]spiperone from human dopamine D3 receptor expressed in CHO-K1 cells; type: cell-based
D(2) dopamine receptor = D(2) dopamine receptor (Homo sapiens, UniProt P14416); assay: Displacement of [3H]spiperone from human dopamine D2short receptor expressed in CHO-K1 cells; type: cell-based
D(1A) dopamine receptor = D(1A) dopamine receptor (Homo sapiens, UniProt P21728); assay: Displacement of [3H]SCH23390 from human dopamine D1 receptor expressed in HEK cells; type: cell-based, HEK293
Histamine H4 receptor = Histamine H4 receptor (Homo sapiens, UniProt Q9H3N8); assay: Displacement of [3H]histamine from human histamine H4 receptor expressed in Sf9 cells
Histamine H1 receptor = Histamine H1 receptor (Homo sapiens, UniProt P35367); assay: Displacement of [3H]pyrilamine from human histamine H1 receptor expressed in CHO-K1 cells; type: cell-based
Histamine H3 receptor = Histamine H3 receptor (Homo sapiens, UniProt Q9Y5N1); assay: Displacement of [3H]Nalpha-methylhistamine from human recombinant histamine H3 receptor expressed in HEK-293 cells; type: cell-based, HEK293
Sequence of Histamine H3 receptor (Q9Y5N1 whole entry): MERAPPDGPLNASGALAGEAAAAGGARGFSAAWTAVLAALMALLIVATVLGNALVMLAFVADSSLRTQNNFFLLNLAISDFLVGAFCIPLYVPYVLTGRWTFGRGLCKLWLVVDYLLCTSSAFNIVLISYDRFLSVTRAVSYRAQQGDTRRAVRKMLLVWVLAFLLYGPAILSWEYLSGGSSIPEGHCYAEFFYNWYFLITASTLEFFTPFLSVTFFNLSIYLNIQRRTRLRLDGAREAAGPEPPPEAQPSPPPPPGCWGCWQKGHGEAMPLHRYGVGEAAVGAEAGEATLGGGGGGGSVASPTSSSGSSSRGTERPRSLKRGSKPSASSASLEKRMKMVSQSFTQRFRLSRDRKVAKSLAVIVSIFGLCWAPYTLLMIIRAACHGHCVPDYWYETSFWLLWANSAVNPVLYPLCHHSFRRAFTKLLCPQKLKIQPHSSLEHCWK

Sequence of D(1B) dopamine receptor (P21918 whole entry): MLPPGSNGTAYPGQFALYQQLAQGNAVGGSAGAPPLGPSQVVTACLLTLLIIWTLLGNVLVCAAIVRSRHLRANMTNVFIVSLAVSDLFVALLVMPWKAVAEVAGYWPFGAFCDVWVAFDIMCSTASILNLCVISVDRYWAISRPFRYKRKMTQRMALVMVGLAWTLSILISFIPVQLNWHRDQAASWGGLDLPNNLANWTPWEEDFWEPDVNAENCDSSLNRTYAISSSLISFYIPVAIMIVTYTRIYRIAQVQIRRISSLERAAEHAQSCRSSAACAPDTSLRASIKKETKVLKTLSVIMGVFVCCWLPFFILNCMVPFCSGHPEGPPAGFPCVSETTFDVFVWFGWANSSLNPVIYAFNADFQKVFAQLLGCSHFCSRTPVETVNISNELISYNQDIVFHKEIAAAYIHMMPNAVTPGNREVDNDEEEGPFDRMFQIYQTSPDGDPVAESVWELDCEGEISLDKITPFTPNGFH
Sequence of D(3) dopamine receptor (P35462 whole entry): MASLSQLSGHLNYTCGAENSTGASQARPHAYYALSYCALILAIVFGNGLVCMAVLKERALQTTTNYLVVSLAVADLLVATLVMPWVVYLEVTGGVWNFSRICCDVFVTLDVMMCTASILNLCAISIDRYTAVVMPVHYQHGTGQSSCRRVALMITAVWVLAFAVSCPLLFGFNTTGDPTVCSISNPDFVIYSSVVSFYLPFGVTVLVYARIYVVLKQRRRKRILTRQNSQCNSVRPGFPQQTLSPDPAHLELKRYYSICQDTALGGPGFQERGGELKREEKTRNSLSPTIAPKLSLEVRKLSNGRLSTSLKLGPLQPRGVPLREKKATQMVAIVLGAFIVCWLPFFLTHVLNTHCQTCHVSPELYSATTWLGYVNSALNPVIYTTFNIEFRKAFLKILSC
Sequence of D(1A) dopamine receptor (P21728 whole entry): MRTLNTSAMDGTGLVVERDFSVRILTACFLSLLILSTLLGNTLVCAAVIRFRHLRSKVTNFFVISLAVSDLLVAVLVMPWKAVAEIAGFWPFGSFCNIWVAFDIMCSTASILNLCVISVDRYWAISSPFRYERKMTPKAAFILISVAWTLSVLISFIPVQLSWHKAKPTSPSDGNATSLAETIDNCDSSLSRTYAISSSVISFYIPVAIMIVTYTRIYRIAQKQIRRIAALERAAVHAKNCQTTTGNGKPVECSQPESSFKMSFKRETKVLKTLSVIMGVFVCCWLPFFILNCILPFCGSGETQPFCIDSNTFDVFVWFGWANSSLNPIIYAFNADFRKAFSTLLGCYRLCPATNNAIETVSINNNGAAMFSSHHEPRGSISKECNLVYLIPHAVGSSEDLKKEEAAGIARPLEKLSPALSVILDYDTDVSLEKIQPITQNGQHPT
Sequence of Histamine H1 receptor (P35367 whole entry): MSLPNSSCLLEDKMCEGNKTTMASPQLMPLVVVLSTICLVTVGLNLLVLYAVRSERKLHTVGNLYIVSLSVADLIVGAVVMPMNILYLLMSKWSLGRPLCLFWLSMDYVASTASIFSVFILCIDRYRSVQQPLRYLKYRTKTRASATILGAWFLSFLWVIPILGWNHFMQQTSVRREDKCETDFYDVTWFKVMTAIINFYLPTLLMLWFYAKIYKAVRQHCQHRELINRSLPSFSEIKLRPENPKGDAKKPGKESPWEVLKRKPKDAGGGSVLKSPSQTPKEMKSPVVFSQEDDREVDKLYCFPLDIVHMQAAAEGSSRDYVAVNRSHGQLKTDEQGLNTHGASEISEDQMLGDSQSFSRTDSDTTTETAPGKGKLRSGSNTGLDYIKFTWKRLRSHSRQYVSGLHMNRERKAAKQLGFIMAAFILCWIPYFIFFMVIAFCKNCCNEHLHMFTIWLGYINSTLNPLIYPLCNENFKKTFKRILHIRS
Sequence of Histamine H4 receptor (Q9H3N8 whole entry): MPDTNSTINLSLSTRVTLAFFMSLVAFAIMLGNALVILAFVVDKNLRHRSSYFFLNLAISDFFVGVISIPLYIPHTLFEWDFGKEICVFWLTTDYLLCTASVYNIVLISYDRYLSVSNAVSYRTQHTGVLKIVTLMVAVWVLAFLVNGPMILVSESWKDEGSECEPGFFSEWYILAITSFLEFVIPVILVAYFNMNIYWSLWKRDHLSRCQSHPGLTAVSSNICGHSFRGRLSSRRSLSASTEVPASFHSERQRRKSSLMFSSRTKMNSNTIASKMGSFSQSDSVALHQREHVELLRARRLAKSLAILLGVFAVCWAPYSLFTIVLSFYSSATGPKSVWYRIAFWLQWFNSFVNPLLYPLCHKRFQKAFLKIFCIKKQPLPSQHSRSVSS
Sequence of D(2) dopamine receptor (P14416 whole entry): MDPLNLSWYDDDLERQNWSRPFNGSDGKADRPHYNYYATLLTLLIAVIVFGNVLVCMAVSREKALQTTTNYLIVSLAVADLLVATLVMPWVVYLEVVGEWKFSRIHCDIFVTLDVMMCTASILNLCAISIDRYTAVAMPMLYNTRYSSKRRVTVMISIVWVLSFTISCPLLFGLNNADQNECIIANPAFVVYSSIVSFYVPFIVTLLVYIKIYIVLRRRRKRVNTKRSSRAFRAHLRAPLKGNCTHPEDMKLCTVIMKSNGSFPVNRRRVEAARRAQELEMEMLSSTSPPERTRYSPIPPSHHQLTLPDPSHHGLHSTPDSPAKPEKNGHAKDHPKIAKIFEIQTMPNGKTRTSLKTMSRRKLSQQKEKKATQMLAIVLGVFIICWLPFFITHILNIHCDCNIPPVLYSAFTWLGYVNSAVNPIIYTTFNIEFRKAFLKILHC

Work on CC1=CC(C)=[N+]2C1=C(c1ccc(OCCCN3CCCCC3)cc1)c1c(C)cc(C)n1[B-]2(F)F [BODILISANT] yielded a pKi (D(1B) dopamine receptor) of 5.28, a pKi (D(3) dopamine receptor) of 5.83 and a pKi (D(2) dopamine receptor) of 5.71. The pKi (D(1A) dopamine receptor) was 4.90, the pKi (Histamine H4 receptor) was 5.13 and the pKi (Histamine H1 receptor) was 5.78. It also gave a pKi (Histamine H3 receptor) of 8.19.

From ChEMBL document CHEMBL2321700, “Bodilisant-a novel fluorescent, highly affine histamine h3 receptor ligand” (ACS Med Chem Lett, 2013)
